One block for each molecule: values may come before it.
What was measured:
[1] = Cellular toxicity assay in CEM cells; format: cell-based; details: human
Description: (§1) The toxicity of the compounds was assessed in Vero, human PBM, CEM (human lymphoblastoid), MT-2, and HepG2 cells, as described previously (see Schinazi R. F., Sommadossi J.-P., Saalmann V., Cannon D. L., Xie M.-Y., Hart G. C., Smith G. A. & Hahn E. F. Antimicrob. Agents Chemother. 1990, 34, 1061-67). Cycloheximide was included as positive cytotoxic control, and untreated cells exposed to solvent were included as negative controls. The cytotoxicity IC50 was obtained from the concentration-response curve using the median effective method described previously (see Chou T.-C. & Talalay P. Adv. Enzyme Regul. 1984, 22, 27-55; Belen'kii M. S. & Schinazi R. F. Antiviral Res. 1994, 25, 1-11).

[2] = Cellular toxicity assay in macrophages; format: cell-based, human; details: human
[3] = Cellular toxicity assay in Vero cells; format: cell-based; details: African green monkey
Description: as §1

[4] = Cellular toxicity assay in PBM cells; format: cell-based; details: human
Description: as §1

[5] = Cellular toxicity assay in Huh7 cells; format: cell-based; details: human
HIV [6] = test: HIV assay in macrophages; format: cell-based; details: for EC90 / EC50: Human immunodeficiency virus 1, Macrophage, Table 5 (Example 8); for Antiviral Potency Macrophages - EC50/90: EC50 / Antiviral Potency Macrophages - EC50/90: EC90: Table 5A
Description: (§2) PBM cells or macrophages were incubated with various concentrations of antiviral agents for 6 days PBM cells) or […] (macrophages), followed by harvest of supernatants and quantification of extracellular HIV using the RT assay or p24 assays as previously described (Gavegnano and Schinazi et al, 2012, AAC). AZT (positive control), no drug controls, or virus alone were also performed in each assay. Assays were performed in 8 independent experiments. The Chou and Tallalay method was used to calculate the effective inhibitory concentration 50/90 as previously described (Gavegnano and Schinazi et al, 2012, AAC).

HIV [7] = test: HIV assay in PBM cells; format: cell-based
Description: as §2

[8] = Bone marrow cytotoxicity, GM lineage (CFU-GM); format: cell-based, human; details: human, Table 8A, first value of the cell, read-out: Cytotoxicity: MTT IC50, Bone Marrow (GM Lineage)
Description: (§3) Primary human bone marrow mononuclear cells can be obtained commercially from Cambrex Bioscience (Walkersville, MD). CFU-GM assays is carried out using a bilayer soft agar in the presence of 50 units/mL human recombinant granulocyte/macrophage colony-stimulating factor, while BFU-E assays used a […] matrix containing 1 unit/mL erythropoietin (see Sommadossi J P, Carlisle R. Toxicity of 3′-azido-3′-deoxythymidine and 9-(1,3-dihydroxy-2-propoxymethyl) guanine for normal human hepatopoietic progenitor cells in vitro. Antimicrob. Agents Chemother. 1987; 31: 452-454; Sommadossi, JP, Schinazi, RF, Chu, C K, and Xie, M Y. Comparison of cytotoxicity of the (−) and (+) enantiomer of 2′,3′-dideoxy-3′-thiacytidine in normal human bone marrow progenitor cells. Biochem. Pharmacol. 1992; 44:1921-1925). Each experiment can be performed in duplicate in cells from three different donors. AZT is used as a positive control. […] The 50% inhibitory concentration (IC50) can be obtained by least-squares linear regression analysis of the logarithm of drug concentration versus BFU-E survival fractions. Statistical analysis can be performed with Student's t test for independent non-paired samples.

[9] = Bone marrow cytotoxicity, erythroid lineage (BFU-E); format: cell-based, human; details: human; Table 8A; first value of the cell; read-out: Cytotoxicity: MTT IC50, Bone Marrow (Erythroid Lineage)
Description: as §3

Bone Marrow (GM Lineage) = test: Bone marrow cytotoxicity, GM lineage (CFU-GM); format: cell-based, human; details: Table 8A; slash not defined, head says IC50
Description: as §3

Macrophages = test: Cellular toxicity assay in macrophages; format: cell-based, human; details: Table 8A; slash not defined, head says IC50
[10] = test system: Bone Marrow (Erythroid Lineage); test: Bone marrow cytotoxicity, erythroid lineage (BFU-E); format: cell-based, human; details: Table 8A; slash not defined, head says IC50
Description: as §3

[11] = Table 8A, MTT, read-out: Cytotoxicity: MTT IC50, CEM
[12] = Table 8A, first value of the cell, read-out: Cytotoxicity: MTT IC50, Macrophages
[13] = Table 8A, MTT, read-out: Cytotoxicity: MTT IC50, Vero
[14] = Table 8A, MTT, read-out: Cytotoxicity: MTT IC50, PBM
[15] = Table 8A, MTT, read-out: Cytotoxicity: MTT IC50, Huh7
[16] = Human immunodeficiency virus 1, PBMC, 144 h, Table 5 (Example 8), HIV in PBM cells, 6 days, read-out: PBM Cells EC50
[17] = CEM lymphoblastoid cells, Table 8, read-out: Cytotoxicity IC50, CEM
[18] = macrophages, Table 8, read-out: Cytotoxicity IC50, Macrophages
[19] = Vero cells, Table 8, read-out: Cytotoxicity IC50, Vero
[20] = PBM cells, Table 8, read-out: Cytotoxicity IC50, PBM
[21] = CEM lymphoblastoid cells, Table 8A, MTT, read-out: Cytotoxicity: MTT IC50, CEM
[22] = primary bone marrow mononuclear cells, GM lineage (CFU-GM)
[23] = macrophages, Table 8A, first value of the cell, read-out: Cytotoxicity: MTT IC50, Macrophages
[24] = Vero cells, Table 8A, MTT, read-out: Cytotoxicity: MTT IC50, Vero
[25] = PBM cells, Table 8A, MTT, read-out: Cytotoxicity: MTT IC50, PBM
[26] = Huh7 cells, Table 8A, MTT, read-out: Cytotoxicity: MTT IC50, Huh7
[27] = Human immunodeficiency virus 1, PBMC, Table 5A, HIV in PBM cells, read-out: Antiviral Potency PBM Cells - EC50/90: EC50
[28] = Table 5A, HIV in PBM cells, read-out: Antiviral Potency PBM Cells - EC50/90: EC50

Compound: C[C@@H]1C[C@@H]([C@H](O)CC2CC(=O)NC(=O)C2)C(=O)[C@@H](C)C1
IC50 [1, 11]: 0.06 µM
IC50 [2, 12]: 6.9 ± 0.9 µM
IC50 [3, 13]: 0.7 µM
IC50 [4, 14]: 2.5 µM
IC50 [5, 15]: 0.9 µM

EC90 (HIV [6]): 0.01 nM
Compound: C#C[C@]1(CO)O[C@@H](n2cnc3c(N)nc(F)nc32)CC1O (some centres unmarked)

EC50 (HIV [6]): 0.001 µM
EC90 (HIV [6]): 20 nM
EC90 (HIV [7]; Human immunodeficiency virus 1, PBMC, 144 h, Table 5 (Example 8), HIV in PBM cells, 6 days): 19.1 µM
EC50 (HIV [7]; [16]): 3.2 µM
Compound: C#C[C@]1(CO)O[C@@H](n2cnc3c(N)nc(F)nc32)C(O)C1O (some centres unmarked)

Compound: C#C[C@]1(CO)O[C@@H](n2cnc3c(N)nc(F)nc32)C[C@@H]1O [drawing 60]
IC50 [1, 17]: 6.8 µM
IC50 [2, 18]: 2.4 µM
IC50 [3, 19]: ≥ 100 µM
IC50 [4, 20]: 1.1 µM

Compound: C#C[C@]1(CO)O[C@@H](n2cnc3c(N)nc(F)nc32)[C@H](O)[C@@H]1O [drawing 61]
IC50 [1, 17]: 52 µM
IC50 [2, 18]: 0.7 µM
IC50 [3, 19]: > 100 µM
IC50 [4, 20]: 3.2 µM

Compound: CN(C)c1cccc(-c2c3c(=O)n(-c4ccccc4Cl)[nH]c3cc(=O)n2C)c1 [drawing 62]
IC50 [2, 18]: > 10 µM
IC50 [4, 20]: > 100 µM

Compound: CC(=O)c1ccc2c(c1)Nc1ccccc1S2 [drawing 63]
IC50 [2, 18]: > 10 µM
IC50 [4, 20]: > 100 µM

Compound: COc1ccc(NC(=O)Nc2ccc(N)cc2)cc1 [drawing 64]
IC50 [2, 18]: > 10 µM
IC50 [4, 20]: > 100 µM

Compound: C#C[C@]1(CO)O[C@@H](n2ccc(=O)[nH]c2=O)[C@H](O)[C@@H]1O [drawing 65]
IC50 [1, 21]: > 100 µM
IC50 [8, 22]: > 100 µM
IC50 [2, 23]: > 100 µM
IC50 [9]: > 100 µM
IC50 [3, 24]: > 100 µM
IC50 [4, 25]: > 100 µM
IC50 [5, 26]: > 100 µM

Compound: C#C[C@]1(COP(=O)(N[C@@H](C)C(=O)OC(C)C)Oc2ccccc2)O[C@@H](n2ccc(=O)[nH]c2=O)[C@H](O)[C@@H]1O (some centres unmarked) [drawing 66]
IC50 [1, 11]: > 100 µM
IC50 [8]: > 100 µM
IC50 [2, 12]: > 100 µM
IC50 [9]: > 100 µM
IC50 [3, 13]: > 100 µM
IC50 [4, 14]: > 100 µM
IC50 [5, 15]: > 100 µM

Compound: C#C[C@]1(CO)O[C@@H](n2cnc3c(N)nc(F)nc32)C[C@@H]1O [drawing 67]
IC50 [1, 21]: 1.7 µM
IC50 [8, 22]: 1.9 µM
Bone Marrow (GM Lineage), second value after the slash (Bone Marrow (GM Lineage)): 22.4 µM
IC50 [2, 23]: 21 µM
Macrophages, second value after the slash (Macrophages): 9.2 µM
IC50 [9]: 2.4 µM
Bone Marrow (Erythroid Lineage), second value after the slash [10]: 8.6 µM
IC50 [3, 24]: 3.2 µM
IC50 [4, 25]: 2.9 µM

Compound: C#C[C@]1(CO)O[C@@H](n2cnc3c(N)nc(F)nc32)[C@H](O)[C@@H]1O [drawing 68]
IC50 [1, 21]: 1.9 µM
IC50 [8, 22]: 0.4 µM
Bone Marrow (GM Lineage), second value after the slash (Bone Marrow (GM Lineage)): 12.7 µM
IC50 [2, 23]: 3.2 ± 0.3 µM
IC50 [9]: 0.7 µM
Bone Marrow (Erythroid Lineage), second value after the slash [10]: 5.4 µM
IC50 [3, 24]: 12.9 µM
IC50 [4, 25]: 2.2 µM
IC50 [5, 26]: 11.4 µM

Compound: O=c1c2cc(F)ccc2sn1-c1ccc2c(c1)OCO2 [drawing 70]
IC50 ([1]; CEM lymphoblastoid cells, Table 8B, MTT (head line), read-out: Cytotoxicity: IC50, CEM): 3.7 µM
IC50 ([3]; Vero cells, Table 8B, MTT (head line), read-out: Cytotoxicity: IC50, Vero): 20.1 µM
IC50 ([4]; PBM cells, Table 8B, MTS (head line), read-out: Cytotoxicity: IC50, PBM): 58.3 ± 10.9 µM
IC50 ([5]; Huh7 cells, Table 8B, MTT/MTS (head line), read-out: Cytotoxicity: IC50, Huh7): 379 ± 19.2 µM

EC50 (HIV [6]): 0.03 µM
EC90 (HIV [6]): 300 nM
EC50 (HIV [7]; [16]): > 100 µM
Compound: CN(C)c1cccc(-c2c3c(=O)n(-c4ccccc4Cl)[nH]c3cc(=O)n2C)c1 [drawing 73]

EC50 (HIV [6]): 0.02 µM
EC90 (HIV [6]): 200 nM
EC50 (HIV [7]; [16]): > 100 µM
Compound: CC(=O)c1ccc2c(c1)Nc1ccccc1S2 [drawing 74]

EC50 (HIV [6]): 0.001 µM
EC90 (HIV [6]): 100 nM
EC50 (HIV [7]; [16]): > 100 µM
Compound: COc1ccc(NC(=O)Nc2ccc(N)cc2)cc1 [drawing 75]

Antiviral Potency Macrophages - EC50/90: EC50 (HIV [6]): 16600 ± 3200 nM
Antiviral Potency Macrophages - EC50/90: EC90 (HIV [6]): > 100000 nM
EC50 (HIV [7]; [27]): > 10 µM
Compound: C#C[C@]1(CO)O[C@@H](n2ccc(=O)[nH]c2=O)[C@H](O)[C@@H]1O [drawing 76]

Compound: C#C[C@]1(COP(=O)(N[C@@H](C)C(=O)OC(C)C)Oc2ccccc2)O[C@@H](n2ccc(=O)[nH]c2=O)[C@H](O)[C@@H]1O (some centres unmarked) [drawing 77]
Antiviral Potency Macrophages - EC50/90: EC50 (HIV [6]): 0.1 ± 6 nM
Antiviral Potency Macrophages - EC50/90: EC90 (HIV [6]): 9 ± 7 nM
EC50 (HIV [7]; Human immunodeficiency virus 1, PBMC, read-out: Antiviral Potency PBM Cells - EC50/90: EC50): > 10 µM

Antiviral Potency Macrophages - EC50/90: EC50 (HIV [6]): 3e-05 nM
Antiviral Potency Macrophages - EC50/90: EC90 (HIV [6]): 7e-06 nM
Antiviral Potency PBM Cells - EC50/90: EC90 (HIV [7]; Table 5A, HIV in PBM cells): 0.0000001 µM
EC50 (HIV [7]; [28]): 0.000000001 µM
Compound: C#C[C@]1(CO)O[C@@H](n2cnc3c(N)nc(F)nc32)C[C@@H]1O [drawing 78]

Antiviral Potency Macrophages - EC50/90: EC50 (HIV [6]): 1 ± 2 nM
Antiviral Potency Macrophages - EC50/90: EC90 (HIV [6]): 20 ± 10 nM
EC50 (HIV [7]; [27]): 1.8 µM
Compound: C#C[C@]1(CO)O[C@@H](n2cnc3c(N)nc(F)nc32)[C@H](O)[C@@H]1O [drawing 79]

Antiviral Potency Macrophages - EC50/90: EC50 (HIV [6]): 9 nM
Antiviral Potency Macrophages - EC50/90: EC90 (HIV [6]): 300 nM
Antiviral Potency PBM Cells - EC50/90: EC90 (HIV [7]; Table 5A, HIV in PBM cells): 12.9 µM
EC50 (HIV [7]; [28]): 0.7 µM
Compound: O=c1c2cc(F)ccc2sn1-c1ccc2c(c1)OCO2 [drawing 81]

Source: patent US12239655B2, “Combined modalities for nucleosides and/or NADPH oxidase (NOX) inhibitors as myeloid-specific antiviral agents” (Emory University, priority 2017, dated 2025)
